Consider 3 compounds from ChEMBL document CHEMBL1152560, “Substituted 2-arylbenzothiazoles as kinase inhibitors: hit-to-lead optimization” (Bioorg Med Chem, 2009).

Experiment [1] has as its target Fibroblast growth factor receptor 4 (Homo sapiens) (UniProt P22455). Nature of the experiment: Residual activity of FGFR4 at 0.1 uM by microplate scintillation counting.
The target of experiment [2] is MAP kinase-activated protein kinase 3 (Homo sapiens) (UniProt Q16644). Nature of the experiment: Residual activity of MAPKAPK3 at 1 uM by microplate scintillation counting.
For experiment [3], the target named is T1, Serine/threonine-protein kinase Nek1 (Homo sapiens) (UniProt Q96PY6).
T1 sequence (whole entry): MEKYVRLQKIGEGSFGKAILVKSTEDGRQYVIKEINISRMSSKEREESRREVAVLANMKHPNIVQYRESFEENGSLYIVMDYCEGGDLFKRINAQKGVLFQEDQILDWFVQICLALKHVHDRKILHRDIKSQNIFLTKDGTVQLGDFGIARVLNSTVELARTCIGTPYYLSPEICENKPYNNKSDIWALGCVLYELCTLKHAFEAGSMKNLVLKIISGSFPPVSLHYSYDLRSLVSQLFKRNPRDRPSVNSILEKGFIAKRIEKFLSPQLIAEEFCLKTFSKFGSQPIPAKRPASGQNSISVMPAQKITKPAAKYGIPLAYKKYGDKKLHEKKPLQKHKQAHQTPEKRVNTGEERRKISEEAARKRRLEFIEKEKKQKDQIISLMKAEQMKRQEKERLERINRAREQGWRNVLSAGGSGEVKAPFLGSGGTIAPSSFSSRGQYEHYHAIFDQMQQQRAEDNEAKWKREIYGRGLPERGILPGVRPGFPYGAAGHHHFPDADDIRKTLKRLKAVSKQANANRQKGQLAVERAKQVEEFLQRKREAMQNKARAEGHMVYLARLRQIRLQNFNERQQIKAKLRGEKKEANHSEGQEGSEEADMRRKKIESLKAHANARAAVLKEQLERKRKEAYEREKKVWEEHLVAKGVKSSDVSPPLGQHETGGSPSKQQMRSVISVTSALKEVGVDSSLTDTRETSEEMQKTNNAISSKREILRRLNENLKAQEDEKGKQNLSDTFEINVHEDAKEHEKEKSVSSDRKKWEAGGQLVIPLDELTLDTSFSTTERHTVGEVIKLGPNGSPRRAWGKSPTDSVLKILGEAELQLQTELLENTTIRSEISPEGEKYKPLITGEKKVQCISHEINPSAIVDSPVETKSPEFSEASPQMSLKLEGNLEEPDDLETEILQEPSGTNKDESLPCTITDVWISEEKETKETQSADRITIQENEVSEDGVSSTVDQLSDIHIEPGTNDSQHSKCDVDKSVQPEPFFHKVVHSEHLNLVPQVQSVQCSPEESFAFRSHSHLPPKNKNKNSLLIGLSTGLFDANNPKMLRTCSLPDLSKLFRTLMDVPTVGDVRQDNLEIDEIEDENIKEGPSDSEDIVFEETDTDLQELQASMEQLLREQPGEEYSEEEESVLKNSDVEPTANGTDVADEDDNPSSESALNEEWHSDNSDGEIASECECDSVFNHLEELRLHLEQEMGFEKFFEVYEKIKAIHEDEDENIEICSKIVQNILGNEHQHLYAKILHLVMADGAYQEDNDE
Put plainly: Residual activity of NEK1 at 1 uM by microplate scintillation counting.

For experiment [4], the target named is Tyrosine-protein kinase SYK (Homo sapiens) (UniProt P43405). Nature of the experiment: Residual activity of SYK at 1 uM by microplate scintillation counting.
Experiment [5] addresses Ephrin type-A receptor 7 (Homo sapiens) (UniProt Q15375). Put plainly: Residual activity of EPHA7 at 10 uM by microplate scintillation counting.
Experiment [6] concerns the target T2, Aurora kinase C (Homo sapiens) (UniProt Q9UQB9).
T2 sequence (whole entry): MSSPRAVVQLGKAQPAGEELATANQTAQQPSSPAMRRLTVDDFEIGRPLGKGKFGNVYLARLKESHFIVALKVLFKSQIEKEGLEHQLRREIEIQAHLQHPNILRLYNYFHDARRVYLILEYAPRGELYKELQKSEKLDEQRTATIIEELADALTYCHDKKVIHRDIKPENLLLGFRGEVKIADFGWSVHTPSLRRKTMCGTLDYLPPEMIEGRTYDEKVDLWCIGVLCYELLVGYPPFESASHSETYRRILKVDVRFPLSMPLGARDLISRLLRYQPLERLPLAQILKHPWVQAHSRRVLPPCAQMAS
Nature of the experiment: Residual activity of Aurora-C at 1 uM by microplate scintillation counting.

The target of experiment [7] is Epidermal growth factor receptor (Homo sapiens, UniProt P00533). Nature of the experiment: Residual activity of wild type EGF-R at 0.1 uM by microplate scintillation counting.
Experiment [8] deals with T3, Megakaryocyte-associated tyrosine-protein kinase (Homo sapiens) (UniProt P42679).
T3 sequence (whole entry): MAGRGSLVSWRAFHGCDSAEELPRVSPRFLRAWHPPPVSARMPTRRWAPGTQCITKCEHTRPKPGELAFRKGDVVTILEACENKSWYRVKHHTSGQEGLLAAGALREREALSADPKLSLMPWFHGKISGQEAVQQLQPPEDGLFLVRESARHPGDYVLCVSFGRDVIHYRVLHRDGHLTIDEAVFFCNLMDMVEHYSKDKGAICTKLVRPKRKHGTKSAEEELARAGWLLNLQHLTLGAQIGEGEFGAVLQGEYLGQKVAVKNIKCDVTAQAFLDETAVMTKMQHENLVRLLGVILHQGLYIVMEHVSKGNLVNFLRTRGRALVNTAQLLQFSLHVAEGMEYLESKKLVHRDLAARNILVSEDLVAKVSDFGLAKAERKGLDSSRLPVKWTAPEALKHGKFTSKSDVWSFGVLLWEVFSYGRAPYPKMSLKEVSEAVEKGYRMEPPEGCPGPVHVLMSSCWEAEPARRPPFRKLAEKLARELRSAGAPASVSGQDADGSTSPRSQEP
Nature of the experiment: Residual activity of MATK at 10 uM by microplate scintillation counting.

In experiment [9] the target is Serine/threonine-protein kinase Nek6 (Homo sapiens) (UniProt Q9HC98). Nature of the experiment: Residual activity of NEK6 at 10 uM by microplate scintillation counting.
Experiment [10] concerns the target Macrophage-stimulating protein receptor (Homo sapiens) (UniProt Q04912). Put plainly: Residual activity of RON at 0.1 uM by microplate scintillation counting.
The target of another experiment is Angiopoietin-1 receptor (Homo sapiens, UniProt Q02763). Nature of the experiment: Residual activity of TIE2 at 0.1 uM by microplate scintillation counting.
Sequence of Angiopoietin-1 receptor (Q02763 whole entry): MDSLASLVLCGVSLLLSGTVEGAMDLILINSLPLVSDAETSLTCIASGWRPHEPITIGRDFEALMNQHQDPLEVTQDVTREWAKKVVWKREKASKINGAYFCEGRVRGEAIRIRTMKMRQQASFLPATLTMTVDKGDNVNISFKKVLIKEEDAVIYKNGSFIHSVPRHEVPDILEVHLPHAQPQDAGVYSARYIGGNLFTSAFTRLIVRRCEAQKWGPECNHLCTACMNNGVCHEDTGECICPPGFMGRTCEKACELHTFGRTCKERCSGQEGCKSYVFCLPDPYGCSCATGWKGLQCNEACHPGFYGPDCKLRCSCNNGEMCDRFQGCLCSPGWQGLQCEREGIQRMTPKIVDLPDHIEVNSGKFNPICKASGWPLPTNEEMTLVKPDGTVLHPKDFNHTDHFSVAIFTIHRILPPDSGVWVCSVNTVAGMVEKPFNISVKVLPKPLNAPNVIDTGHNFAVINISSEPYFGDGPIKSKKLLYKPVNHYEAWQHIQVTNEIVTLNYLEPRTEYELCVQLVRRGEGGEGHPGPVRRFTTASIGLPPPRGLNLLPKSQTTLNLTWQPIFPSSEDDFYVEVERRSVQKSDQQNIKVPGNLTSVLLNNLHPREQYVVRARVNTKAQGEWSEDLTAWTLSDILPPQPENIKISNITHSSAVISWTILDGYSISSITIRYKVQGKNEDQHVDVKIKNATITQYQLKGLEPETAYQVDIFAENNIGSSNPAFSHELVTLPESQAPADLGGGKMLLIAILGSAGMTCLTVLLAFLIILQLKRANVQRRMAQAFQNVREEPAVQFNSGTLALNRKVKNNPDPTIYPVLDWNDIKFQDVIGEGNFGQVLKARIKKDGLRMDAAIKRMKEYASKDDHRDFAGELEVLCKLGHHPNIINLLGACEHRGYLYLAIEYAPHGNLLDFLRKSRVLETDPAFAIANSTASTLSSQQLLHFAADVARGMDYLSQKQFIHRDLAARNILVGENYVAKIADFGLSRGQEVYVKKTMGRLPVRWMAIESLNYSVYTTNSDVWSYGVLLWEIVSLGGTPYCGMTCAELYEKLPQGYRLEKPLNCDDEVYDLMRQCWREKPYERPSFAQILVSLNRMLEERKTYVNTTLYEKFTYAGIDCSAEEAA

Sequence of Serine/threonine-protein kinase Nek6 (Homo sapiens) (Q9HC98 whole entry): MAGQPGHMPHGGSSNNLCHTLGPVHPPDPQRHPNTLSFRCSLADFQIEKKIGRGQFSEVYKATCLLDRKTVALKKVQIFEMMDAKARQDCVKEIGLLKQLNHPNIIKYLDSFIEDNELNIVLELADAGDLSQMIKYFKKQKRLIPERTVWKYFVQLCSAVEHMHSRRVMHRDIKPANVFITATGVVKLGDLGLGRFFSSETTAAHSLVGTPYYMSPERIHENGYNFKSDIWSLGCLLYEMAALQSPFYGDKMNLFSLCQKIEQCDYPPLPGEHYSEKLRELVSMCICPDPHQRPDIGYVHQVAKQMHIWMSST
Sequence of Fibroblast growth factor receptor 4 (Homo sapiens) (P22455 22-802 limits assumed): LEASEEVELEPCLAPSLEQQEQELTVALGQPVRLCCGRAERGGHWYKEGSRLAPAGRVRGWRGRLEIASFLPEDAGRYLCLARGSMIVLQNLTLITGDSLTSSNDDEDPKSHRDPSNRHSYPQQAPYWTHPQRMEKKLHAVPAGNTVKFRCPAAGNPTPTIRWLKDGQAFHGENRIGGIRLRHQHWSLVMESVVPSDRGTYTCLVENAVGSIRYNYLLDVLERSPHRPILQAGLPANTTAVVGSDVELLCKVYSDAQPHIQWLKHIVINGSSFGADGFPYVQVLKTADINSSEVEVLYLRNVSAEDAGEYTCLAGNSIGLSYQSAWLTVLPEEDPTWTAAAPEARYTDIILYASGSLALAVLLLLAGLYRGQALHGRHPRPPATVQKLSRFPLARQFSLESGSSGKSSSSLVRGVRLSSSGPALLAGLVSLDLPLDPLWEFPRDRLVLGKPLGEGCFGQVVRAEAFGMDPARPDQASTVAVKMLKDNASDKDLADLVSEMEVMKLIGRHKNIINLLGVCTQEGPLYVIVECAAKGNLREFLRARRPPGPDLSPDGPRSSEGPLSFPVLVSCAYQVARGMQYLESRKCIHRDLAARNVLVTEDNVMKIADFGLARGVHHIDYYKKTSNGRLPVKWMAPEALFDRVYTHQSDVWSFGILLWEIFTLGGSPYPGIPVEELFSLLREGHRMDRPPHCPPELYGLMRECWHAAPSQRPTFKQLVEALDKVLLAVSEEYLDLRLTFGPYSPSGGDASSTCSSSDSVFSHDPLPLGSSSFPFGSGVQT
Sequence of Epidermal growth factor receptor (P00533 whole entry): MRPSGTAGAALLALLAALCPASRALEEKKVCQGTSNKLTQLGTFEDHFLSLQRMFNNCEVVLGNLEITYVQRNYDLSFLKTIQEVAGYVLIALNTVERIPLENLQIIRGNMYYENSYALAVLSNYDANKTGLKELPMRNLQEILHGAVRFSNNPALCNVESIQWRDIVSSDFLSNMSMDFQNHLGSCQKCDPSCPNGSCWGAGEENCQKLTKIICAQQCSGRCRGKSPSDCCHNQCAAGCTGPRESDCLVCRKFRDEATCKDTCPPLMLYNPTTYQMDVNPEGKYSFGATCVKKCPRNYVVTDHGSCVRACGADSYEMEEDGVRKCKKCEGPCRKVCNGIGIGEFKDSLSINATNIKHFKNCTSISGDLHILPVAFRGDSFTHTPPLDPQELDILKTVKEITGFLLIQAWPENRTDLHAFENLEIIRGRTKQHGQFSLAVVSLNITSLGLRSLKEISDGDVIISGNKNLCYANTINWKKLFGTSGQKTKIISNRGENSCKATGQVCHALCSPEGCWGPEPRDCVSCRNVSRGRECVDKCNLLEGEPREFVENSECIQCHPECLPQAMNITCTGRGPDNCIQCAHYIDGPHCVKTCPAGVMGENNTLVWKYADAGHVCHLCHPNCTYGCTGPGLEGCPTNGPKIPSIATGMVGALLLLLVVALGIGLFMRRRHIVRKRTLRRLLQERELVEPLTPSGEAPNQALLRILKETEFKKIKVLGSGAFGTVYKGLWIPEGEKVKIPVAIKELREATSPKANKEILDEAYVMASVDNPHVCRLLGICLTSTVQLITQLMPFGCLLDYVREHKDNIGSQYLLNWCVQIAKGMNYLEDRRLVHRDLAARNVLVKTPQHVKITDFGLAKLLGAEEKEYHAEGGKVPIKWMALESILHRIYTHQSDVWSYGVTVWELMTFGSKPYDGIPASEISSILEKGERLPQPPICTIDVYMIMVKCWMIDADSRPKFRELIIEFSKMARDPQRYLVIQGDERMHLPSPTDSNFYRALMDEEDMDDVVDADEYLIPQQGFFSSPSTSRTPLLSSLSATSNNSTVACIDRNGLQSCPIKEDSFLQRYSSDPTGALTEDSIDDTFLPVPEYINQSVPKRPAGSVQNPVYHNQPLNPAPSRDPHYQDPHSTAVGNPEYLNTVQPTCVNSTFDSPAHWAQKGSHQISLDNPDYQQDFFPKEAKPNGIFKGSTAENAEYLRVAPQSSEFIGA
Sequence of MAP kinase-activated protein kinase 3 (Homo sapiens) (Q16644 whole entry, looked up): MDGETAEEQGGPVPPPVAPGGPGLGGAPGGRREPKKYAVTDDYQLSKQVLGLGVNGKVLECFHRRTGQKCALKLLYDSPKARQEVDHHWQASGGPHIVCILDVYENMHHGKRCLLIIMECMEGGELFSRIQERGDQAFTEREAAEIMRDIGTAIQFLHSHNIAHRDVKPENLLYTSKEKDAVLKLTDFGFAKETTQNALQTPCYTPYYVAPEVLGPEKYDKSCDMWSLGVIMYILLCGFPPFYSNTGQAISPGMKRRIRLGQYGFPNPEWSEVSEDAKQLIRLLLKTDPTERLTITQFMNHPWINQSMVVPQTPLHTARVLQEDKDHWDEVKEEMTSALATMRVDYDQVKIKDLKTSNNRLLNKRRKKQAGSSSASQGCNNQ
Sequence of Ephrin type-A receptor 7 (Homo sapiens) (Q15375 28-998 limits assumed): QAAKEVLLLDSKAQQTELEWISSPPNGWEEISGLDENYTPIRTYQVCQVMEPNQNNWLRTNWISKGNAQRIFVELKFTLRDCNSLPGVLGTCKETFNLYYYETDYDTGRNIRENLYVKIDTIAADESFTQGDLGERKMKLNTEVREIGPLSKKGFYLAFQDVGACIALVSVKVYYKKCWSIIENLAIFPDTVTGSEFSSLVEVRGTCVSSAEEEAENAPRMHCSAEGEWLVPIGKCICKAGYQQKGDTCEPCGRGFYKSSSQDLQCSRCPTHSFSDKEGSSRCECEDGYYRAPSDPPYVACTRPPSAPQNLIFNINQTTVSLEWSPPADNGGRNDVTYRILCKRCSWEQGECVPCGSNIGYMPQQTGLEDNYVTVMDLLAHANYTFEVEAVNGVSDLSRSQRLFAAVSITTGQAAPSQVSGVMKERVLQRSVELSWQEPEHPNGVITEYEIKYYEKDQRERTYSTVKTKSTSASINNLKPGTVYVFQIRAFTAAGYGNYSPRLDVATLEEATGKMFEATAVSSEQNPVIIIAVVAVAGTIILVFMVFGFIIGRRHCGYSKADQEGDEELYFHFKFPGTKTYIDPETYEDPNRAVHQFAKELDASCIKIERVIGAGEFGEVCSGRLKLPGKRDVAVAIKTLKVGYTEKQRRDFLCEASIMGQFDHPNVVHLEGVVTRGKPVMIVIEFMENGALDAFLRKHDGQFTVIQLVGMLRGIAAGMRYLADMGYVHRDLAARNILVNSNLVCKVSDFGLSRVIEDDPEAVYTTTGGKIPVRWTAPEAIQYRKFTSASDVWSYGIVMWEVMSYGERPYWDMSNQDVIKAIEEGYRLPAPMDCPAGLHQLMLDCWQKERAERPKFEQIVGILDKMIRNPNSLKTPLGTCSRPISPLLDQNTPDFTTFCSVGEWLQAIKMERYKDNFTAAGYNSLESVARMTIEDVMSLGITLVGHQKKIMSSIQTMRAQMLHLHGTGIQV

On to `COc1cc2c(Oc3ccc(-c4nc5ccccc5s4)cc3)ncnc2cc1OCCCN1CCCC1`, for which the residual activity in experiment [1] worked out at 100%; in experiment [2], 94%; in [3], 85%; in [4], 97%; in experiment [5], 108%; in experiment [6] it was 7%. Also, the residual activity in experiment [7] was 95%; in experiment [8] it was 267%; in [9] it was 94%; in experiment [10], 90%; at Angiopoietin-1 receptor it was 50%.

As to `COc1cc2c(Oc3ccc(-c4nc5ccccc5s4)cc3F)ncnc2cc1OCCCN1CCN(C)CC1`, the residual activity was 109% in experiment [1]; 98% in [2]; 94% in [3]; 102% in experiment [4]; 49% in experiment [5]; 10% in experiment [6]. Also, the residual activity is 100% in experiment [7]; 215% in [8]; 101% in experiment [9]; 72% in [10]; 53% on Angiopoietin-1 receptor.

For the compound `COc1cc2c(Oc3ccc(-c4nc5ccccc5s4)cc3)ncnc2cc1OCCCN1CCN(C)CC1`, the residual activity stood at 104% in [1]; 85% in experiment [2]; 85% in experiment [3]; 95% in experiment [4]; 116% in experiment [5]; 11% in experiment [6]. Also, the residual activity in experiment [7] was 94%; in experiment [8] it was 377%; in [9] it was 96%; in experiment [10] it was 74%; on Angiopoietin-1 receptor it was 38%.
